Laboratory results: US20150284342A1, “BIS(FLUOROALKYL)-1,4-BENZODIAZEPINONE COMPOUNDS” (BRISTOL-MYERS SQUIBB COMPANY, priority 2011, published 2015)
Read-outs that look alike come from different tables or passages of the source.

How the values were obtained:
[1] = High Throughput (HT) Metabolic Stability Panel, mouse liver microsomes
Description: (§1) Each compound was tested in duplicate.

Notch 3 = test: Notch-CBF1 Transactivation Assay (Notch 3); type: cell-based
Text: (§2) Table 12 denotes respective DNA quantity for the transfections.
(§3) Duplicates were used for each sample.

[2] = High Throughput (HT) Metabolic Stability Panel, human liver microsomes
Description: as §1

Notch 1 = test: Notch-CBF1 Transactivation Assay (Notch 1); type: cell-based
Text: as §2, §3

[3] = 0.5 μM compound, mouse liver microsomes, 10 min incubation
[4] = read-out: Notch 3 (IC50), HeLa cells, luciferase, rounded to 2 digits
[5] = 0.5 μM compound, human liver microsomes, 10 min incubation
[6] = read-out: Notch 1 (IC50), HeLa cells, luciferase, rounded to 2 digits
[7] = HeLa cells, luciferase, rounded to 2 digits, read-out: Notch 3 (IC50)
[8] = HeLa cells, luciferase, rounded to 2 digits, read-out: Notch 1 (IC50)

SMILES	0.5 μM MsLM (% Remaining) [1, 3] [%]	IC50 (Notch 3; [4]) [nM]	0.5 μM HLM (% Remaining) [2, 5] [%]	IC50 (Notch 1; [6]) [nM]	IC50 (Notch 3; [7]) [nM]	IC50 (Notch 1; [8]) [nM]	0.5 μM MsLM (% Remaining) ([1]; mouse, microsomes, 10 min, 0.5 µM, pH 7.4) [%]	0.5 μM HLM (% Remaining) ([2]; human, microsomes, 10 min, 0.5 µM, pH 7.4) [%]
CC(C)C[C@@H](C(=O)N[C@H]1N=C(c2ccccc2)c2ccccc2N(C)C1=O)[C@H](CCC(F)(F)F)C(N)=O [Comparative Compound 22, reference compound]	15	48	39	64	–	–	–	–
C=CC[C@H](C(N)=O)[C@@H](CC(C)C)C(=O)N[C@H]1N=C(c2ccccc2)c2ccccc2N(CCC)C1=O [Comparative Compound 25, reference compound]	0.18	–	2.7	–	–	–	–	–
COc1ccc2c(c1)C(c1ccccc1)=N[C@H](NC(=O)[C@H](CCC(F)(F)F)[C@H](CCC(F)(F)F)C(N)=O)C(=O)N2C [Example 9, (2R,3S)—N-((3S)-7-methoxy-1-methyl-2-oxo-5-phenyl-2,3-dihydro-1H-1,4-benzodiazepin-3-yl)-2,3-bis(3,3,3-trifluoropropyl)succinamide]	87	8.2	100	4.4	–	–	–	–
CN1C(=O)[C@@H](NC(=O)[C@H](CCC(F)(F)F)[C@H](CC(F)(F)F)C(N)=O)N=C(c2ccccc2)c2ccccc21 [Example 4, (2R,3S)—N-((3S)-1-Methyl-2-oxo-5-phenyl-2,3-dihydro-1H-1,4-benzodiazepin-3-yl)-3-(2,2,2-trifluoroethyl)-2-(3,3,3-trifluoropropyl)succinamide]	91	2.5	100	1.5	–	–	–	–
NC(=O)[C@@H](CCCC(F)(F)F)[C@@H](CCC(F)(F)F)C(=O)N[C@H]1N=C(c2ccccc2)c2ccccc2NC1=O [Example 19, (2R,3S)—N-((3S)-2-Oxo-5-phenyl-2,3-dihydro-1H-1,4-benzodiazepin-3-yl)-3-(4,4,4-trifluorobutyl)-2-(3,3,3-trifluoropropyl)succinamide]	97	3.8	96	1.3	–	–	–	–
C=CC[C@H](C(N)=O)[C@@H](CC(C)C)C(=O)N[C@H]1N=C(c2ccccc2)c2cc(Cl)ccc2N(C)C1=O [Comparative Compound 23, reference compound]	9.0	–	19	–	–	–	–	–
NC(=O)[C@@H](CCC(F)(F)F)[C@@H](CCC(F)(F)F)C(=O)N[C@H]1N=C(c2ccccc2)c2cccc(F)c2NC1=O [Example 17, (2R,3S)—N-((3S)-9-fluoro-2-oxo-5-phenyl-2,3-dihydro-1H-1,4-benzodiazepin-3-yl)-2,3-bis(3,3,3-trifluoropropyl)succinamide]	96	7.1	100	3.6	–	–	–	–
CN1C(=O)[C@@H](NC(=O)[C@H](CCC(F)(F)F)[C@H](CCC(F)(F)F)C(N)=O)N=C(c2ccccc2)c2cc(Cl)ccc21 [Example 6, (2R,3S)—N-((3S)-7-chloro-1-methyl-2-oxo-5-phenyl-2,3-dihydro-1H-1,4-benzodiazepin-3-yl)-2,3-bis(3,3,3-trifluoropropyl)succinamide]	100	10	100	6.5	–	–	–	–
COc1ccc2c(c1)NC(=O)[C@@H](NC(=O)[C@H](CCC(F)(F)F)[C@H](CCC(F)(F)F)C(N)=O)N=C2c1ccccc1 [Example 13, (2R,3S)—N-((3S)-8-methoxy-2-oxo-5-phenyl-2,3-dihydro-1H-1,4-benzodiazepin-3-yl)-2,3-bis(3,3,3-trifluoropropyl)succinamide]	97	–	100	–	3.8	2.1	–	–
COc1ccc2c(c1)NC(=O)[C@@H](NC(=O)[C@H](CCC(F)(F)F)[C@H](CCCC(F)(F)F)C(N)=O)N=C2c1ccccc1 [Example 20, (2R,3S)—N1-((3S)-8-Methoxy-2-oxo-5-phenyl-2,3-dihydro-1H-1,4-benzodiazepin-3-yl)-3-(4,4,4-trifluorobutyl)-2-(3,3,3-trifluoropropyl)succinamide]	100	4.2	100	2.9	–	–	–	–
[2H]C([2H])([2H])N1C(=O)[C@@H](NC(=O)[C@H](CCC(F)(F)F)[C@H](CCC(F)(F)F)C(N)=O)N=C(c2ccccc2)c2ccccc21 [Example 5, (2R,3S)—N-((3S)-1-(^2H3)Methyl-2-oxo-5-phenyl-2,3-dihydro-1H-1,4-benzodiazepin-3-yl)-2,3-bis(3,3,3-trifluoropropyl)succinamide]	–	–	–	–	5.9	1.2	98	100
CN1C(=O)[C@@H](NC(=O)[C@H](CCC(F)(F)F)[C@H](CCC(F)(F)F)C(N)=O)N=C(c2ccccc2)c2ccc(F)cc21 [Example 8, (2R,3S)—N-((3S)-8-fluoro-1-methyl-2-oxo-5-phenyl-2,3-dihydro-1H-1,4-benzodiazepin-3-yl)-2,3-bis(3,3,3-trifluoropropyl)succinamide]	100	8.1	96	4.9	–	–	–	–
COc1ccc2c(c1)N(C)C(=O)[C@@H](NC(=O)[C@H](CCC(F)(F)F)[C@H](CCC(F)(F)F)C(N)=O)N=C2c1ccccc1 [Example 7, (2R,3S)—N-((3S)-8-methoxy-1-methyl-2-oxo-5-phenyl-2,3-dihydro-1H-1,4-benzodiazepin-3-yl)-2,3-bis(3,3,3-trifluoropropyl)succinamide]	72	–	93	–	2.8	1.5	–	–
CN1C(=O)[C@@H](NC(=O)[C@H](CC(F)(F)F)[C@H](CCC(F)(F)F)C(N)=O)N=C(c2ccccc2)c2ccccc21 [Example 3, (2R,3S)—N-((3S)-1-Methyl-2-oxo-5-phenyl-2,3-dihydro-1H-1,4-benzodiazepin-3-yl)-2-(2,2,2-trifluoroethyl)-3-(3,3,3-trifluoropropyl)succinamide]	91	4.7	84	3.1	–	–	–	–
COc1c(C#N)ccc2c1NC(=O)[C@@H](NC(=O)[C@H](CCC(F)(F)F)[C@H](CCC(F)(F)F)C(N)=O)N=C2c1ccccc1 [Example 15, (2R,3S)—N-((3S)-8-cyano-9-methoxy-2-oxo-5-phenyl-2,3-dihydro-1H-1,4-benzodiazepin-3-yl)-2,3-bis(3,3,3-trifluoropropyl)succinamide]	93	16	100	12	–	–	–	–
CCCC[C@H](C(N)=O)[C@@H](CC(C)C)C(=O)N[C@H]1N=C(c2ccc(Cl)cc2)c2ccccc2N(C)C1=O [Comparative Compound 24, reference compound]	13	–	21	–	–	–	–	–
COCCNc1cccc2c1NC(=O)[C@@H](NC(=O)[C@H](CCC(F)(F)F)[C@H](CCC(F)(F)F)C(N)=O)N=C2c1ccccc1 [Example 21, (2R,3S)—N-((3S)-9-((2-Methoxyethyl)amino)-2-oxo-5-phenyl-2,3-dihydro-1H-1,4-benzodiazepin-3-yl)-2,3-bis(3,3,3-trifluoropropyl)succinamide]	82	4.2	98	1.5	–	–	–	–
NC(=O)[C@@H](CCC(F)(F)F)[C@@H](CCC(F)(F)F)C(=O)N[C@H]1N=C(c2ccccc2)c2ccc(Cl)c(Cl)c2NC1=O [Example 16, (2R,3S)—N-((3S)-8,9-dichloro-2-oxo-5-phenyl-2,3-dihydro-1H-1,4-benzodiazepin-3-yl)-2,3-bis(3,3,3-trifluoropropyl)succinamide]	91	6.4	80	4.2	–	–	–	–
COc1ccc2c(c1)C(c1ccccc1)=N[C@H](NC(=O)[C@H](CCC(F)(F)F)[C@H](CCC(F)(F)F)C(N)=O)C(=O)N2 [Example 14, (2R,3S)—N-((3S)-7-methoxy-2-oxo-5-phenyl-2,3-dihydro-1H-1,4-benzodiazepin-3-yl)-2,3-bis(3,3,3-trifluoropropyl)succinamide]	95	–	100	–	13	5.2	–	–
CN1C(=O)[C@@H](NC(=O)[C@H](CCC(F)(F)F)[C@H](CCC(F)(F)F)C(N)=O)N=C(c2ccccc2)c2cc(F)ccc21 [Example 10, (2R,3S)—N-((3S)-7-fluoro-1-methyl-2-oxo-5-phenyl-2,3-dihydro-1H-1,4-benzodiazepin-3-yl)-2,3-bis(3,3,3-trifluoropropyl)succinamide]	98	4.6	96	2.9	–	–	–	–
COc1cccc2c1NC(=O)[C@@H](NC(=O)[C@H](CCC(F)(F)F)[C@H](CCC(F)(F)F)C(N)=O)N=C2c1ccccc1 [Example 12, (2R,3S)—N-((3S)-9-methoxy-2-oxo-5-phenyl-2,3-dihydro-1H-1,4-benzodiazepin-3-yl)-2,3-bis(3,3,3-trifluoropropyl)succinamide]	100	4.2	100	2.5	–	–	–	–
NC(=O)[C@@H](CCC(F)(F)F)[C@@H](CCC(F)(F)F)C(=O)N[C@H]1N=C(c2ccccc2)c2cccc(Cl)c2NC1=O [Example 18, (2R,3S)—N-((3S)-9-chloro-2-oxo-5-phenyl-2,3-dihydro-1H-1,4-benzodiazepin-3-yl)-2,3-bis(3,3,3-trifluoropropyl)succinamide]	100	2.3	100	0.53	–	–	–	–
